Blank lines part the entries; values can stand above or below the compound they belong to.
What was measured:
CXCR4 [1] = molecular target: T1, CXCR4 (Homo sapiens, UniProt P61073); experiment: Competition binding assay vs [^68Ga]Pentixafor in PC3-CXCR4 cells; details: for Hill Slope, Competitive Binding Experiment: vs [^68Ga]Pentixafor, value ± SD
T1 construct: expressed in transfected cells; host or cells: PC3 (human prostate cancer) cells stably transduced with CXCR4
Experimental: PC3-CXCR4 cells were plated in 12-well plates at a density of 500,000 cells per well and incubated for 48 h at 37 °C/5% CO2. Prior to the binding assay the cells were incubated in fresh media and 370–555 kBq of [^68Ga]Pentixafor or [^18F]RPS-544 was added to each well. The corresponding concentration of [^68Ga]Pentixafor in each well was 100 nM, and the concentration of [^18F]RPS-544 was approximately 5 pM. Then non-radioactive ligands were added to give a final ligand concentration in the range 0.001–10,000 nM. A total of eight concentrations were studied, and each concentration was tested in triplicate. The cells were incubated for 60 min at 37 °C/5% CO2. The media was removed under suction, the cells were washed with cold PBS 1X and detached and transferred to tubes for counting in 1 M NaOH. The cells were counted in a Wizard^2 Gamma Counter (PerkinElmer, Waltham, MA, USA). Non-specific binding was subtracted, and the IC50 values were determined by assuming a simple competitive binding interaction and fitting the data to a sigmoidal Hill plot in Origin 9.0 (OriginLab, Northampton, MA, USA). Potencies are expressed as IC50 ± standard deviation (Supplemental Data, Figure S7).

[2] = test system: PC3-CXCR4 xenograft tumors; experiment: Biodistribution in mice bearing bilateral PC3-WT/PC3-CXCR4 xenograft tumors; assay type: in vivo, BALB/c mice
Experimental: (§1) All animal studies were approved by the Institutional Animal Care and Use Committee of Weill Cornell Medicine (Protocol Number: 2015-0066) and were undertaken in accordance with the guidelines set forth by the USPHS Policy on Humane Care and Use of Laboratory Animals. Animals were housed under standard conditions in approved facilities with 12 h light/dark cycles. Food and water was provided ad libitum throughout the course of the studies. Hairless 6-to-8-week old male BALB/c inbred athymic nude mice (Jackson Laboratory, Bar Harbor, ME, USA) were inoculated bilaterally with 0.2 mL of a 1:1 mixture of 10^7 PC3-CXCR4 cells in PBS and Matrigel (Corning, Tewksbury, MA, USA) subcutaneously in the left shoulder and 0.2 mL of a 1:1 mixture of 10^7 PC3-WT cells in PBS and Matrigel subcutaneously in the right shoulder. Imaging and biodistribution studies were performed three weeks post-implantation, when tumors were approximately 100–300 mm^3.
(§2) For the biodistribution studies, tumor-bearing animals (n = 5/compound/time point) were injected intravenously with 50–100 μL of a 9% v/v EtOH/saline solution containing approximately 1.1 MBq of the radioligand. […] The mice were euthanized at 1 or 2 h p.i. and tissues including blood, heart, lungs, liver, small intestine, large intestine, stomach (with contents), spleen, pancreas, kidneys, muscle, bone, PC3-WT tumors, PC3-CXCR4 tumors, and tail were collected. All organs were weighed and placed in test tubes for counting in a Wizard^2 Gamma Counter (PerkinElmer, Waltham, MA, USA). For comparison, 1% injected activity standards were prepared and counted along with the tissue samples. The tails were counted to correct for any dose extravasation. Activity in each tissue was corrected for decay and for injected activity and expressed as percent injected dose per gram of tissue (%ID/g) ± standard error.

[3] = as above; assay type: in vivo, BALB/c mice
Experimental: as §1, §2

CXCR4 [4] = molecular target: T1, CXCR4; experiment: Saturation binding assay in PC3-CXCR4 cells
Experimental: To determine the dissociation constants, saturation binding assays were performed in the PC3-CXCR4 cells. The cells were plated as described above, and approximately 5 nM of the radioligand was added to each well. Then the corresponding non-radioactive ligand was added to give a final concentration in the range 0.001–10,000 nM. A total of eight concentrations were tested, and each concentration was tested in triplicate. The samples were washed and counted as described above. Non-specific binding was subtracted, and Kd values were determined by performing a nonlinear one site binding curve fit with equation y = (Bmax · x)/(Kd + x). Values are expressed as Kd ± standard deviation (Supplemental Data, Figure S8).

PC3-CXCR4 cells = experiment: Cell-associated activity in PC3-CXCR4 cells; assay type: cell-based, human; details: 1 h
Experimental: Maximum cell-associated activity was calculated by subtracting the cell uptake of the radioactive ligand at the highest non-radioactive ligand concentration of 10 µM (which we considered to be non-specific uptake/binding) from the cell uptake at the lowest non-radioactive ligand concentration of 10^−5 µM.

[5] = 1 h p.i., blocked by co-injection of 5 mg/kg AMD-3100

T1 sequence (P61073 whole entry): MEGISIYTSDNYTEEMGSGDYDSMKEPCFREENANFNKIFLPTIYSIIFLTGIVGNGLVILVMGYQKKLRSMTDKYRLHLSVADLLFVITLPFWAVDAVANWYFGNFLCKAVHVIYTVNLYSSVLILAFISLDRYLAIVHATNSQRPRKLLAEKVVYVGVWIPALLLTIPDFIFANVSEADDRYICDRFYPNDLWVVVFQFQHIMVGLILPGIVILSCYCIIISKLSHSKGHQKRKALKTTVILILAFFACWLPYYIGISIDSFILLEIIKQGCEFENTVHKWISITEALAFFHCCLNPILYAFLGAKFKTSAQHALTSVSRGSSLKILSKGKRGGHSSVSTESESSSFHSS

Hill Slope, Competitive Binding Experiment (CXCR4 [1]): 1.01 ± 0.30
Structure (SMILES): c1ccc(CNCc2ccc(CN3CCCNCCNCCCNCC3)cc2)nc1 [AMD-3465, reference compound]

Bone tissue activity ([2]; 1 h p.i.): 0.52±0.04 %ID/g
Heart tissue activity ([2]; 1 h p.i.): 0.18±0.04 %ID/g
Kidneys tissue activity ([2]; 1 h p.i.): 10.73 ± 1.10 %ID/g
Large Intestine tissue activity ([2]; 1 h p.i.): 0.20±0.02 %ID/g
Liver tissue activity ([2]; 1 h p.i.): 6.59±1.00 %ID/g
Lungs tissue activity ([2]; 1 h p.i.): 0.48±0.05 %ID/g
Muscle tissue activity ([2]; 1 h p.i.): 0.14±0.01 %ID/g
PC3-CXCR4 Tumor Uptake ([2]; 1 h p.i.): 3.09 ± 0.52 %ID/g
PC3-CXCR4 Tumor-to-Tissue Ratio Blood ([2]; 1 h p.i.): 10.1 ± 0.3
PC3-CXCR4 Tumor-to-Tissue Ratio Bone ([2]; 1 h p.i.): 5.9 ± 0.8
PC3-CXCR4 Tumor-to-Tissue Ratio Kidneys ([2]; 1 h p.i.): 0.3 ± 0.2
PC3-CXCR4 Tumor-to-Tissue Ratio Liver ([2]; 1 h p.i.): 0.5 ± 0.2
PC3-CXCR4 Tumor-to-Tissue Ratio Lungs ([2]; 1 h p.i.): 6.2 ± 0.8
PC3-CXCR4 Tumor-to-Tissue Ratio Muscle ([2]; 1 h p.i.): 20.3 ± 0.3
PC3-CXCR4 Tumor-to-Tissue Ratio PC3-WT ([2]; 1 h p.i.): 1.9 ± 0.3
PC3-WT tumor activity ([2]; 1 h p.i.): 1.54±0.18 %ID/g
Pancreas tissue activity ([2]; 1 h p.i.): 0.20±0.01 %ID/g
Small Intestine tissue activity ([2]; 1 h p.i.): 0.95±0.10 %ID/g
Spleen tissue activity ([2]; 1 h p.i.): 0.53±0.02 %ID/g
Stomach tissue activity ([2]; 1 h p.i.): 0.17±0.03 %ID/g
Bone tissue activity [2, 5]: 0.22±0.12 %ID/g
Heart tissue activity [2, 5]: 0.14±0.19 %ID/g
Kidneys tissue activity [2, 5]: 4.08±1.10 %ID/g
Large Intestine tissue activity [2, 5]: 0.23±0.06 %ID/g
Liver tissue activity [2, 5]: 4.13±0.50 %ID/g
Lungs tissue activity [2, 5]: 0.35±0.15 %ID/g
Muscle tissue activity [2, 5]: 0.18±0.35 %ID/g
PC3-CXCR4 tumor activity [2, 5]: 1.16±0.12 %ID/g
PC3-WT tumor activity [2, 5]: 0.86±0.10 %ID/g
Pancreas tissue activity [2, 5]: 0.22±0.04 %ID/g
Small Intestine tissue activity [2, 5]: 0.51±0.18 %ID/g
Spleen tissue activity [2, 5]: 0.12±0.03 %ID/g
Stomach tissue activity [2, 5]: 0.10±0.03 %ID/g
PC3-CXCR4 Tumor Uptake ([2]; 1 h p.i., listed as [^18F]RPS-547): 3.1 ± 0.5 %ID/g
Bone tissue activity ([2]; 2 h p.i.): 0.31±0.02 %ID/g
Heart tissue activity ([2]; 2 h p.i.): 0.08±0.01 %ID/g
Kidneys tissue activity ([2]; 2 h p.i.): 5.60±0.56 %ID/g
Large Intestine tissue activity ([2]; 2 h p.i.): 0.19±0.12 %ID/g
Liver tissue activity ([2]; 2 h p.i.): 5.18±0.27 %ID/g
Lungs tissue activity ([2]; 2 h p.i.): 0.24±0.02 %ID/g
Muscle tissue activity ([2]; 2 h p.i.): 0.09±0.02 %ID/g
PC3-CXCR4 Tumor-to-Tissue Ratio Blood ([2]; 2 h p.i.): 24.0 ± 0.2
PC3-CXCR4 Tumor-to-Tissue Ratio Bone ([2]; 2 h p.i.): 6.3 ± 0.4
PC3-CXCR4 Tumor-to-Tissue Ratio Kidneys ([2]; 2 h p.i.): 0.3 ± 0.1
PC3-CXCR4 Tumor-to-Tissue Ratio Liver ([2]; 2 h p.i.): 0.4 ± 0.2
PC3-CXCR4 Tumor-to-Tissue Ratio Lungs ([2]; 2 h p.i.): 8.2 ± 0.4
PC3-CXCR4 Tumor-to-Tissue Ratio Muscle ([2]; 2 h p.i.): 11.0 ± 0.3
PC3-CXCR4 Tumor-to-Tissue Ratio PC3-WT ([2]; 2 h p.i.): 2.2 ± 0.2
PC3-CXCR4 tumor activity ([2]; 2 h p.i.): 2.02±0.10 %ID/g
PC3-WT tumor activity ([2]; 2 h p.i.): 0.86±0.13 %ID/g
Pancreas tissue activity ([2]; 2 h p.i.): 0.11±0.00 %ID/g
Small Intestine tissue activity ([2]; 2 h p.i.): 0.80±0.01 %ID/g
Spleen tissue activity ([2]; 2 h p.i.): 0.36±0.04 %ID/g
Stomach tissue activity ([2]; 2 h p.i.): 0.11±0.02 %ID/g
Blood tissue activity ([3]; 1 h p.i.): 0.28±0.06 %ID/g
Blood tissue activity [3, 5]: 0.41±0.40 %ID/g
Blood tissue activity ([3]; 2 h p.i.): 0.08±0.01 %ID/g
Kd (CXCR4 [4]; saturation binding, PC3-CXCR4 cells): 261 ± 22 nM
Hill Slope, Saturation Binding Experiment (CXCR4 [4]; value ± SD): 1.03 ± 0.08
IC50 (CXCR4 [1]; vs 100 nM [^68Ga]Pentixafor, PC3-CXCR4 cells, 60 min 37 °C): 601 ± 118 nM
Hill Slope, Competitive Binding Experiment (CXCR4 [1]): 0.97 ± 0.14
Structure (SMILES): FCCn1cc(CNCc2ccc(CN3CCCNCCNCCCNCC3)cc2)nn1 [RPS-547]
Cell-Associated Activity (PC3-CXCR4 cells): 6.7 ± 2.8 %IA
